# Reference: US8216974B2, “Fluorine-containing organosulfur compound and pesticidal composition comprising the same” (Sumitomo Chemical Company, Limited, priority 2007, dated 2012)
# Key:
# Culex pipiens pallens = experiment: Test Example 5: larvae in treated water, Culex pipiens pallens; format: in vivo; conditions: 24 h, active ingredient concentration 3.5 ppm in water, 20 last-instar larvae, one day after, read-out: pest death rate
# Protocol: (§1) A formulation of any one of the present compounds (1) to (10) obtained according to Formulation Example 15 was diluted with water so that the active ingredient concentration was 500 ppm to obtain a test solution.
# To 100 mL of ion-exchanged water, 0.7 ml of the test solution was added (active ingredient concentration: 3.5 ppm). Into the solution, 20 last-instar larvae of Culex pipiens pallens were released. One day after, the number of surviving Culex pipiens pallens was examined and the death rate of the pest was calculated.
# Blattalla germanica = experiment: Test Example 4: filter paper with sucrose bait, Blattalla germanica; format: in vivo; conditions: 500 ppm, 0.7 ml on filter paper; 2 male imagoes; after 6 days
# Protocol: as §1
# A filter paper having a diameter of 5.5 cm was spread on the bottom of a polyethylene cup having a diameter of 5.5 cm and 0.7 ml of the test solution was added dropwise onto the filter paper. As a bait 30 mg of sucrose was uniformly placed on the filter paper. Into the polyethylene cup, 2 male imagoes of Blattalla germanica were released and the cup was sealed with a lid. After 6 days, the number of surviving Blattalla germanica was examined and the death rate of the pest was calculated.
# brown rice planthopper = experiment: Test Example 6: foliar spray on rice plants versus comparative compound, brown rice planthopper; format: in vivo, Nilaparvata lugens; conditions: 175 ppm, sprayed 20 ml/cup on rice plants; 30 first-instar larvae released; counted after 6 days at 25° C.
# Protocol: In this Test Example, as a comparative compound, a compound disclosed in JP-A 2005-179321 (Compound No. 37 in Table 2) and represented by the formula:
# [drawing 112] (hereinafter, referred to as the comparative compound (1)) was used.
# Each formulation of the present compound (6) and the comparative compound (1) was obtained according to Formulation Example 15. The formulation was diluted so that the active ingredient concentration was 175 ppm to obtain a test solution.
# At the same time, 50 g of culture soil, Bonsol No. 2 (manufactured by Sumitomo Chemical Co., Ltd.) was put into a polyethylene cup, and 10 to 15 seeds of rice were planted therein. The rice plants were grown until the second foliage leaf was developed, and then cut so as to have the same height of 5 cm. The test solution was sprayed on the rice plants in an amount of 20 ml/cup. After the test solution sprayed on the rice plants was dried, the rice plants were placed in a plastic cup for the purpose of preventing test worms from escaping. Thirty first-instar larvae of brown rice planthopper were released into the cup, and the cup was sealed with a lid. Then the cup was placed in a greenhouse at 25° C. for 6 days. Then, the number of parasitic brown rice planthoppers on the rice plants was examined.
SMILES,pest or weed control at 3.5 ppm (Culex pipiens pallens),pest death rate (Blattalla germanica),number of the parasitic pests (brown rice planthopper)
"NC(=O)C(c1ccc(Cl)cc1)S(=O)(=O)CCC(F)(F)F (stereo not drawn) [present compound (7), 2-(4-chlorophenyl)-2-(3,3,3-trifluoropropylsulfonyl)acetamide]",≥ 10%,–,–
"NC(=O)C(F)(c1ccc(Cl)c(F)c1)S(=O)(=O)CCC(F)(F)F (stereo not drawn) [present compound (3), 2-(4-chloro-3-fluorophenyl)-2-fluoro-2-(3,3,3-trifluoropropylsulfonyl)acetamide]",≥ 95%,100%,–
"N#CC(SCCC(F)(F)F)c1ccc(Cl)cc1 (stereo not drawn) [comparative compound (1), reference compound]",–,–,≥ 21
"NC(=O)C(Cl)(Cc1cccc(C(F)(F)F)c1)S(=O)(=O)CCC(F)(F)F (stereo not drawn) [present compound (9), 2-chloro-3-(3-trifluoromethylphenyl)-2-(3.3.3-trifluoropropylsulfonyl)propaneamide]",≥ 10%,≥ 50%,–
"NC(=O)C(F)(c1ccc(Cl)cc1)S(=O)(=O)CCC(F)(F)F (stereo not drawn) [present compound (4), 2-(4-chlorophenyl)-2-fluoro-2-(3,3,3-trifluoropropylsulfonyl)acetamide]",≥ 95%,100%,–
"NC(=O)C(F)(c1cc(F)c(F)c(F)c1)S(=O)(=O)CCC(F)(F)F (stereo not drawn) [present compound (1), 2-fluoro-2-(3,3,3-trifluoropropylsulfonyl)-2-(3,4,5-trifluorophenyl)acetamide]",≥ 95%,100%,–
"CC(C(N)=O)(c1cc(F)c(F)c(F)c1)S(=O)(=O)CCC(F)(F)F (stereo not drawn) [present compound (2), 2-(3,4,5-trifluorophenyl)-2-(3,3,3-trifluoropropylsulfonyl)propaneamide]",–,100%,–
"NC(=O)C(SCCC(F)(F)F)c1ccc(Cl)cc1 (stereo not drawn) [present compound (6), 2-(4-chlorophenyl)-2-(3,3,3-trifluoropropylsulfanyl)acetamide]",–,–,≤ 3
"NC(=O)C(Cl)(Cc1ccccc1C(F)(F)F)S(=O)(=O)CCC(F)(F)F (stereo not drawn) [present compound (10), 2-chloro-3-(2-trifluoromethylphenyl)-2-(3,3,3-trifluoropropylsulfonyl)propaneamide]",≥ 95%,–,–
"NC(=O)C(F)(c1ccc(C(F)(F)F)cc1)S(=O)(=O)CCC(F)(F)F (stereo not drawn) [present compound (5), 2-fluoro-2-(3,3,3-trifluoropropylsulfonyl)-2-(4-trifluoromethylphenyl)acetamide]",≥ 95%,100%,–
